From patent US20040072230A1, “Human SORBS1 genetic variations contribute to insulin resistance, obesity, type 2 diabetes, and hypertension” (priority 2002, published 2004)

Tested on: SH3P12/CAP/ponsin mRNA
Experiment: SH3P12/CAP/ponsin mRNA level in differentiated 3T3-L1 adipocytes after BRL49653
Type: cell-based, murine
Settings: BRL49653 4.5 μM for 16 hours added to well-differentiated 3T3-L1 adipocytes on day 6; 8.25 fold in the absence of BRL49653

SMILES: CN(CCOc1ccc(CC2SC(=O)NC2=O)cc1)c1ccccn1 (stereo not shown) [BRL49653, rosiglitazone]
- level of SH3P12/CAP/ponsin mRNA, fold higher than pre-induction levels: 17.6 fold
